Experimental data: patent US20020132812A1, “Oral hypoglycaemic agents” (priority 2000, published 2002)
“And” between values parts separate entries of the source, which are not always exact repeats. Identical values can stand only once.

Key:
Format in all cases: cell-based
mouse pancreatic β-cells = assay: Ca2+-evoked exocytosis (cell capacitance, whole-cell patch clamp) in single mouse pancreatic β-cells; conditions: 100 μM compound in pipette solution, free Ca2+ 0.2 μM
Excerpt: (§1) Pancreatic islets were isolated from fed NMRI mice (15-23 g). Briefly, the mice were stunned by a blow against the head and killed by cervical dislocation. The pancreas was quickly removed and pancreatic islets were isolated by collagenase (Sigma) digestion (Gromada et al. J. Physiol., Vol. 518 (3) pp. 745-759, 1999). For insulin release experiments, the islets were kept in RPMI-1640 tissue culture medium overnight before use. […]
(§2) Patch pipettes were drawn from borosilicate glass capillaries. […] The currents were recorded using an Axopatch 200B patch clamp amplifier (Axon Instruments, Foster City, Calif., USA), digitized and stored in a computer using the Digidata AD-converter and the software pClamp (version 6.0; Axon Instruments). Alternatively, KATP-currents were recorded using an EPC-9 patch clamp amplifier and the Pulse software (v. 8.01; HEKA Elektronik, Lamprecht/Pfalz, Germany). Exocytosis was monitored as increases in cell membrane capacitance (Neher & Marty Proc. Natl. Acad, Sci. USA, Vol. 79, pp. 6712-6716,1982) using the standard whole-cell configuration of the patch-clamp technique and an EPC-9 patch-clamp amplifier and the Pulse software (v. 8.01; HEKA Elektronik). […]

[1] = target: T1, ATP-sensitive K+-channels (KATP-channels) (Mus musculus, UniProt Q61743); assay: Whole-cell ATP-sensitive K+ current (KATP-channel activity) in single mouse β-cells; conditions: 100 μM compound; six experiments; cells dialysed with 0.3 mM ATP and 0.3 mM ADP
T1 construct: Pancreatic islets were isolated from fed NMRI mice (15-23 g); endogenous in cells; host or cells: single beta-cells dispersed from pancreatic islets of NMRI mice
Excerpt: as §1, §2

rat pancreatic α-cells = assay: Ca2+-dependent exocytosis (cell capacitance) in single rat pancreatic α-cells
Method: Male Lewis rats (250-300 g; Møllegaard, Lille Skensved, Denmark) were anaesthetised by pentobarbital (100 mg/kg i.p.). After removal of the pancreas, islets were isolated by collagenase digestion and dispersed into single cells using dispase (Sigma). The α-cells were then separated by fluorescence-activated cell sorting as described elsewhere (Josefsen et al. J. Endocrinol., Vol.149, pp.145-154, 1996). Based on the hormone contents and their glucose sensitivities, we estimate that the preparation contains >80% α-cells and <3% β-cells. […]
as §2

T1 sequence (Q61743 whole entry): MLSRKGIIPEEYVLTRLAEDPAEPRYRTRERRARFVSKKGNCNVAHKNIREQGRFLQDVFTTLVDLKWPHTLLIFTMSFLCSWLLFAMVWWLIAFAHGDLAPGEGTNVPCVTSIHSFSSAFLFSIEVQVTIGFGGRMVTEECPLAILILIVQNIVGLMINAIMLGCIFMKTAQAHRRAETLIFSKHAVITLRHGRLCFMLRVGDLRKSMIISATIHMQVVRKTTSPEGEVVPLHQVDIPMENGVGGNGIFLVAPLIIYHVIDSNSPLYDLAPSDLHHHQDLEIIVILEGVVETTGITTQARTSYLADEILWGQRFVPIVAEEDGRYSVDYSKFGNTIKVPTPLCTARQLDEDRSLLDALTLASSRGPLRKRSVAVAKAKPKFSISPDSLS
T1 sequence (B2RUS7 1-1588 partner): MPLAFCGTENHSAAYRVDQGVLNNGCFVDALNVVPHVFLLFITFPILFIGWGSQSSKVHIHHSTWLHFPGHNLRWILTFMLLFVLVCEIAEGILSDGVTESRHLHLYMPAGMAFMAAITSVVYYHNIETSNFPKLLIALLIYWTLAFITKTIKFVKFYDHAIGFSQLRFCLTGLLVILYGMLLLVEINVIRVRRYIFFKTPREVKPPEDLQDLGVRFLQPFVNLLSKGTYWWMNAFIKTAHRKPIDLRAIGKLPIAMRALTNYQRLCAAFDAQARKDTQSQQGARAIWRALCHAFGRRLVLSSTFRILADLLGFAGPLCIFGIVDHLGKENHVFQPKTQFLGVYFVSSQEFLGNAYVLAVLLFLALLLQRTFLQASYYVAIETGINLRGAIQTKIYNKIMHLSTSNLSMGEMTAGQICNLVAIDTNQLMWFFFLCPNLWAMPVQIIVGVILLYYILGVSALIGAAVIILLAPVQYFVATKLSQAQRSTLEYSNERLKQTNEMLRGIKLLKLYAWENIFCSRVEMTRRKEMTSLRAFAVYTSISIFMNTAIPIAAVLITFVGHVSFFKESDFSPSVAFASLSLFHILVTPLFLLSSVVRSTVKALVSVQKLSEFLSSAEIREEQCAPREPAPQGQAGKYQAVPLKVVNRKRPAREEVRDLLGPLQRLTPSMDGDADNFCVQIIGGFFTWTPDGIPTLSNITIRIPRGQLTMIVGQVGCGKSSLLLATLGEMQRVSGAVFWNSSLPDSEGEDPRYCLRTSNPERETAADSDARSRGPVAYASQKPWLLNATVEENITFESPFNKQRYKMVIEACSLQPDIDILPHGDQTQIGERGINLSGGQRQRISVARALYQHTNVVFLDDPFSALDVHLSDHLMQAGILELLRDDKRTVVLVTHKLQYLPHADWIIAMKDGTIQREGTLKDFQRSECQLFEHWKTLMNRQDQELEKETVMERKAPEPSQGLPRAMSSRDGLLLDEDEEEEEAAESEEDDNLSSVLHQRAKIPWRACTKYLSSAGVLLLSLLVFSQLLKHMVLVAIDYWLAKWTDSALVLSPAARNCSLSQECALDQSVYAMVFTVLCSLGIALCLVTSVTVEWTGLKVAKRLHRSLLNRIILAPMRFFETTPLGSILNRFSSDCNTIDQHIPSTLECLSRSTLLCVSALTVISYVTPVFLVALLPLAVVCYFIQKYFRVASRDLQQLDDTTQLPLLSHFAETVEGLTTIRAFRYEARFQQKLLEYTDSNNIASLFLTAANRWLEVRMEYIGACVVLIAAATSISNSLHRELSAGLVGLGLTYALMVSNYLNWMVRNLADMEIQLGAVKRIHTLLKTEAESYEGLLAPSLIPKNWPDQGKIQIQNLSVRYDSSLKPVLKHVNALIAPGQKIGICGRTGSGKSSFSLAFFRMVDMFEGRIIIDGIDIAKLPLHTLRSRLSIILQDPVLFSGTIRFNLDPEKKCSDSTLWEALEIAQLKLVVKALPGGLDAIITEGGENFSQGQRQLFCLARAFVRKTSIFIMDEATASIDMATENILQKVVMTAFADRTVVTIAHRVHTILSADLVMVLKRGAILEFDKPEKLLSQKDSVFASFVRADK

whole-cell KATP current / channel activity, % of prestimulatory level [1]: 90±4% and 90+4%
SMILES: COc1cccc(C(CC2=NCCN2)c2ccccn2)c1 (single isomer, unassigned; (-)) [compound (Ex 2), (−)-2-(2-(4,5-Dihydro-1H-imidazol-2-yl)-1-(3-methoxyphenyl)ethyl)pyridine]
effect on Ca2+-evoked exocytosis (in words) (mouse pancreatic β-cells): strong stimulation of exocytosis
rate of exocytosis (ΔCm/Δt) measured over the first 60 s after establishment of the whole-cell configuration (mouse pancreatic β-cells; control 5.0±0.3 fF/s, P<0.025): 9.4±1.7 fF/s
rate of exocytosis (ΔCm/Δt) measured over the first 60 s after establishment of the whole-cell configuration (rat pancreatic α-cells; 100 μM compound in pipette solution, free Ca2+ 2 μM, control 16.8±2.5 fF/s, n=5): 4.6±0.7 fF/s
effect on Ca2+-dependent exocytosis (in words) (rat pancreatic α-cells; 0.1 mM compound, Ca2+ 2 μM): strong inhibition of the exocytotic response
